Measurements as given in article PMC10671074, “Tumor Regression upon Intratumoral and Subcutaneous Dosing of the STING Agonist ALG-031048 in Mouse Efficacy Models” (International Journal of Molecular Sciences, 2023).
Where two headings read alike, the source gives them in different places.

Legend:
[1] = test system: THP-1 cells (STING isoform HAQ); experiment: THP-1 cytokine (IP-10) release assay; format: cell-based, human; details: overnight incubation, THP-1 (STING HAQ)
Method: THP-1 cells (American Type Culture Collection, Manassas, VA, USA) were maintained in maintenance media consisting of RPMI-1640, 1% Pen-Strep, 1% NEAA, 1% Glutagro™, 1% HEPES (all Corning), and 10% FBS (Sigma-Aldrich). On the day of dosing, cells were pelleted and resuspended in fresh media to a density of 1.6 × 10^6 cells/mL. An aliquot of […] was added to each well of a 96-well U-bottom plate for a total of 1.0 × 10^5 cells per well, and the final volume was adjusted to 150 µL using fresh media. Compound dilutions were prepared in maintenance media, and 50 µL of diluted compound were added to wells in duplicate. Cells were incubated with the compound overnight at 37 °C. The next day, plates were centrifuged, and the supernatant was collected in a 96-well flat-bottom plate. Human IP-10 was detected using the ProQuantum Immunoassay kit (Thermo Fisher Scientific, Waltham, MA, USA). Data were analyzed using a standard curve and reported as fold-increase over background. Graphs were generated using GraphPad™ Prism version 8.0.

primary human monocytes = experiment: Activation of primary human monocytes (CD83/CD86 flow cytometry); format: cell-based; details: Monocyte, 24 h after stimulation
Description: Frozen human PBMCs (100 × 10^6 cells) were obtained from Stem Cell Technologies (Kent, WA, USA). Monocytes were purified from PBMCs using a CD14^+ pan-monocyte-negative isolation kit and an LS column (Miltenyi Biotec, Bergisch Gladbach, Germany). Magnetically labeled non-target cells were depleted by retaining them within a MACS column in the magnetic field of a MACS Separator, while highly purified unlabeled CD1 D16^− cells were collected and used to generate dendritic cells.
The cell suspension was then incubated with a predetermined optimal concentration of the appropriate fluorescent dye-labeled monoclonal antibodies (mAbs) against human cell surface markers on ice for 30 min. The fluorescent dye-labeled mAbs against human cell surface molecules included anti-CD209, anti-CD14, anti-CD11c, anti-CD40, anti-HLA-DR, anti-CD86, and anti-CD83 (BD Biosciences, Franklin Lakes, NJ, USA or BioLegend, San Diego, CA, USA). In addition, a fixable live/dead stain (Thermo Fisher Scientific) at a dilution of 1:1000 was added to exclude dead cells. After several washes with FACS buffer, cells were resuspended in FACS buffer and analyzed on an Attune Nxt flow cytometer (Thermo Fisher Scientific) with FlowJo v10 software (BD Biosciences). An aliquot of the cells to be analyzed served as controls by using “fluorescent minus-one” to establish gates and determine the frequency of positively stained cells. Ultra-comp beads (Thermo Fisher Scientific) were used as single-stained controls to set up compensation on the flow cytometer.

[2] = test system: primary human immature dendritic cells; experiment: Cytokine release from immature dendritic cells; format: cell-based
Method: The iMDDCs harvested on Day 5 (25,000 cells/well) after differentiation from normal human CD14+ CD16− monocytes were stimulated with STING agonists for 24–48 h. An aliquot of iMDDCs was also cultured in maturation media for 24–48 h and used as a control containing RPMI 1640, 10% FBS, 2 mM L-glutamine, and human TNF-α (6000 IU/mL, Miltenyi Biotec). The supernatant from the plate was frozen to assess cytokine production, and cells were analyzed via flow cytometry.
CD11c+ monocyte‐derived dendritic cells. E: Live cells were selected based on live/dead staining
and cell size. F: Dot plot of size SSC‐A versus SSC‐H for doublet exclusion, gating on singlet cells.
G: Dot plot of CD209 vs CD11c to select CD209+CD11+ high monocyte‐derived dendritic cells.
Figure S4. Increased release of cytokines from iDCs after stimulation for 24 hours with 50 μ M of the […]

plasma cytokines = experiment: Plasma cytokine levels in Hepa1–6 tumor-bearing mice; format: in vivo, mouse; details: Hepa1–6, 6 hours after the first dose
Method: Figure S6. A: Tumor regression in Hepa1‐6 tumor‐bearing […] mice upon IT treatment with three doses of 25 μg (light blue) or 100 μ g ALG‐031048 (dark blue), in comparison to treatment with 10 mg/kg anti‐PD‐1 antibody twice per week, 6 doses total (red). Vehicle‐treated animals are shown in black; shown are the mean tumor volumes ± standard deviation for each group of 10 animals.
Irregular, crater‐shaped tumors prevented accurate tumor volume measurement between Days 8‐
25. Treatment started when tumors reached an average volume of 98 mm3. Statistical analysis pro‐ vided in Table S4. B: Tumor weight for each group at the end of the study. Statistical analysis pro‐ vided in Table S5. C: Plasma cytokine levels 6 hours after the first dose. Each symbol represents one animal as well as the mean of the group (n=10). Unpaired t‐test was used to compare different groups: all groups for al l cytokines were statistically significant from each other with P‐values of < 0.0001 with the following exceptions: vehicle vs anti‐PD‐1 were non‐significant (all cytokines); the […]

[3] = test system: EMT-6 murine mammary carcinoma; experiment: Re-challenge with EMT-6 of mice with complete CT26 tumor regression; format: in vivo, mouse; details: Figure 5D; previously 100 μg IT × 3; EMT-6 right flank
Method: Ten naïve, age-matched female BALB/c mice were used as controls. […] Tumor growth was measured as described above.

[4] = test system: phosphodiesterase I from Crotalus adamanteus venom (SVPD); experiment: in vitro; details: pH 8
subcutaneous CT26 tumors = experiment: CT26 mouse colon carcinoma model
Method: Each mouse was inoculated subcutaneously in the right flank with 3 × 10^5 CT26 cells (in 0.1 mL PBS) for tumor development.
PBS was used as the vehicle control. […] Vehicles and test compounds were administered IT q3d × 3 in a volume of 0.05 mL. SC administration was performed between the shoulder blades at a dosing volume of 10 mL/kg. Tumors were measured twice a week in two dimensions using calipers, and volume was calculated using Formula (1):Tumor Volume (mm^3) = 0.5 (w^2 × l)(1)
Here, w = width and l = length, in mm, of a tumor.
Tumor weight was estimated with the assumption that 1 mg is equivalent to 1 mm^3 of tumor volume.
Animals were euthanized when (1) their tumor reached the endpoint volume of 2000 mm^3, (2) their body weight loss exceeded 30%, or (3) on the last day of the study, whichever came first. The TTE for analysis was calculated for each mouse by the following Equation (2):TTE = (log10 (endpoint volume) − b)/m(2)
TTE is expressed in days, endpoint volume is expressed in mm^3, b is the intercept, and m is the slope of the line obtained via linear regression of a log-transformed tumor growth data set. […] Animals were weighed on Days 1–5, then twice weekly for the duration of the study.

[5] = test system: HEK 293 cells lacking functional STING; experiment: HEK 293 STING Dual Null IRF reporter assay
Method: Assays were set up after allowing cells to adhere for 48 h. Compounds dissolved in water were serially diluted in dosing buffer containing 10 µg/mL of digitonin (MP Biomedicals, Solon, OH, USA). Media were aspirated from the cells, and 50 µL of buffer with compound was added in triplicate. […] The next day, 20 µL of media was transferred to two new plates, and either 50 µL of QuantiLuc™ (Invivogen) to measure IFN-β expression or 80 µL of QuantiBlue™ (Invivogen) to measure IRF activity were added. […] An aliquot of 100 µL of CellTiter-Glo® (Promega, Madison, WI, USA) was added to the original plate still containing the cells, and luminescence was determined to measure viability. All readouts were measured on an Envision plate reader from Perkin Elmer. Data were analyzed using GraphPad™ Prism’s version 8.0 [Agonist] vs. response—variable slope (four parameters) model.
with increasing concentrations of the STING agonists or IFN‐β. After 24 hours, IRF reporter activity

STING R232 = STING R232 (Homo sapiens, UniProt Q86WV6, H232R); experiment: HEK 293 STING R232 IFN-β reporter assay; format: cell-based; parameters: host or cells: 293T-Dual hSTING-R232 (HEK 293T derived); details: HEK 293 STING R232 cells, digitonin dosing buffer 30 min, 20 h; mean±standard deviation; read-out: Reporter Cell Assay EC50, STING R232 IFN-β
Method: Assays were set up after allowing cells to adhere for 48 h. Compounds dissolved in water were serially diluted in dosing buffer containing 10 µg/mL of digitonin (MP Biomedicals, Solon, OH, USA). Media were aspirated from the cells, and 50 µL of buffer with compound was added in triplicate. […] An aliquot of 100 µL of CellTiter-Glo® (Promega, Madison, WI, USA) was added to the original plate still containing the cells, and luminescence was determined to measure viability. All readouts were measured on an Envision plate reader from Perkin Elmer. Data were analyzed using GraphPad™ Prism’s version 8.0 [Agonist] vs. response—variable slope (four parameters) model.

Chain of STING R232 (Q86WV6 whole entry H232R): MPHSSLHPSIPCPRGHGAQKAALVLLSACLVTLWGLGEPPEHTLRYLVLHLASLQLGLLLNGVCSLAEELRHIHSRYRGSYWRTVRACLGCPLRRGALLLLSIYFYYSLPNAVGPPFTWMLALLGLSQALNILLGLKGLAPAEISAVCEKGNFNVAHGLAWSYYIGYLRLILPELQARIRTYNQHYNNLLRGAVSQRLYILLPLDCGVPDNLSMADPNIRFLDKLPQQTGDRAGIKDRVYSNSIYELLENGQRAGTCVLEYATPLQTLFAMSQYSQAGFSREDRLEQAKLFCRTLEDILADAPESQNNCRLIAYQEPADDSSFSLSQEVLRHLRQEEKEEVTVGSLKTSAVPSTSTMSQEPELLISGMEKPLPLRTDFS

CO[C@H]1[C@H]2OP(=O)(O)OC[C@@]34C[C@@H]3[C@@H](n3cnc5c(N)ncnc53)[C@H](O)[C@@H]4O[P@](=O)(S)OC[C@H]1O[C@H]2n1cnc2c(=O)[nH]c(N)nc21 [ALG-031048]
Release of IP-10 in THP-1 cells [1]: dose-dependent release of IP-10
EC50 (primary human monocytes; read-out: EC50 CD83, Monocytes): 8100 nM
EC50 (primary human monocytes; read-out: EC50 CD86, Monocytes): 1120 nM
IFN-γ and IL-6 release from iDCs ([2]; 24 h time point): either no increase or only a minimal increase
Cytokine release from iDCs ([2]; treatment for 24 h, 50 μM (Figure S4)): release of key cytokines IFN-β, IP-10, MIP-1α, MCP-1, and TNF-α
Plasma cytokines after IT administration (plasma cytokines): increased plasma cytokines IFN-β1, IFN-γ, IL-6, MCP-1, MIP-1α, and TNF-α
EMT-6 tumor growth after re-challenge [3]: formed in these animals with kinetics comparable to those of naïve animals
remaining at 24 h [4]: 100%
Animals with complete response (TV < 10 mm^3) at end of study (subcutaneous CT26 tumors; CT26, 4 mg/kg SC, 3 × q3d): one
Animals with tumors regressed and undetectable at end of study (subcutaneous CT26 tumors; Table 2 study, 100 μg IT, three doses): 9 of 10
STING dependence of cellular activation (IRF reporter) ([5]; HEK 293 R232 cells vs control cells lacking STING expression, 24 hours): dependent on the expression of STING
EC50 ([5]; Homo sapiens, HEK293, read-out: Reporter Cell Assay EC50, STING Dual Null IRF): > 100000 nM
EC50 (STING R232): 132 nM
